According to BindingDB's records for patent US9796704 (SYMPHONY EVOLUTION, INC., 2017):
pIC50: −log10 of the molar value.

Legend:
Experiment in all cases: AlphaScreen Assay
[1] = target: Receptor tyrosine-protein kinase erbB-2 (Homo sapiens, UniProt P04626)
[2] = target: Vascular endothelial growth factor receptor 1 (Homo sapiens, UniProt P17948)
Ephrin type-A receptor 2 = Ephrin type-A receptor 2 (Homo sapiens, UniProt P29317)
Ephrin type-B receptor 4 = target: T1, Ephrin type-B receptor 4 (Homo sapiens, UniProt P54760)
T1 sequence (P54760 whole entry): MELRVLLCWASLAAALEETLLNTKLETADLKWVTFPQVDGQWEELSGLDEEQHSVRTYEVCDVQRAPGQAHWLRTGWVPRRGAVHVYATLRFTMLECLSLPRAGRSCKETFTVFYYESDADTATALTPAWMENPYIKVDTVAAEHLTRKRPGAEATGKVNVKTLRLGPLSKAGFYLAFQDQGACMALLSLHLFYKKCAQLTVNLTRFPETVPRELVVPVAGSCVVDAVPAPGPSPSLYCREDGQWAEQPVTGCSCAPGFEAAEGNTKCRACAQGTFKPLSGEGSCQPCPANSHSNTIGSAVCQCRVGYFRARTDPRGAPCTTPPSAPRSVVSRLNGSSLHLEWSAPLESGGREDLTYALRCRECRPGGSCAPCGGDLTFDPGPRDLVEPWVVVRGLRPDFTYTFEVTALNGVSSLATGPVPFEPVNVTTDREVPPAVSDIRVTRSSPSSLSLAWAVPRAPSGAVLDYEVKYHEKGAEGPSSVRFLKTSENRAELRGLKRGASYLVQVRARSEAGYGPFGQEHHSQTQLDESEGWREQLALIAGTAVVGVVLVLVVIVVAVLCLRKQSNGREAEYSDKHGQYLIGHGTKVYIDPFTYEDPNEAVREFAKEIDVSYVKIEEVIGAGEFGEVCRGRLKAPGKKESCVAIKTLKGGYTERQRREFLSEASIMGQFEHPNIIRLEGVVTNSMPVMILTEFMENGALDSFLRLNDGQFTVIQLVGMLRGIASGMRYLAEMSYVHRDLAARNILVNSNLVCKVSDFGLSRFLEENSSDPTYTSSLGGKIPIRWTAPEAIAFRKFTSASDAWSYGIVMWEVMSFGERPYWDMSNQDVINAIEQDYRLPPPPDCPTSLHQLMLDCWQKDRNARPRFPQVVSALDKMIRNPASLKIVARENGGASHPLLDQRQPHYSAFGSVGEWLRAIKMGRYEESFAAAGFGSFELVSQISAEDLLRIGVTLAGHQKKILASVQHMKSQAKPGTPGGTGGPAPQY

[3] = target: Vascular endothelial growth factor receptor 2 (Homo sapiens, UniProt P35968)
Chain of Vascular endothelial growth factor receptor 2 (P35968 whole entry): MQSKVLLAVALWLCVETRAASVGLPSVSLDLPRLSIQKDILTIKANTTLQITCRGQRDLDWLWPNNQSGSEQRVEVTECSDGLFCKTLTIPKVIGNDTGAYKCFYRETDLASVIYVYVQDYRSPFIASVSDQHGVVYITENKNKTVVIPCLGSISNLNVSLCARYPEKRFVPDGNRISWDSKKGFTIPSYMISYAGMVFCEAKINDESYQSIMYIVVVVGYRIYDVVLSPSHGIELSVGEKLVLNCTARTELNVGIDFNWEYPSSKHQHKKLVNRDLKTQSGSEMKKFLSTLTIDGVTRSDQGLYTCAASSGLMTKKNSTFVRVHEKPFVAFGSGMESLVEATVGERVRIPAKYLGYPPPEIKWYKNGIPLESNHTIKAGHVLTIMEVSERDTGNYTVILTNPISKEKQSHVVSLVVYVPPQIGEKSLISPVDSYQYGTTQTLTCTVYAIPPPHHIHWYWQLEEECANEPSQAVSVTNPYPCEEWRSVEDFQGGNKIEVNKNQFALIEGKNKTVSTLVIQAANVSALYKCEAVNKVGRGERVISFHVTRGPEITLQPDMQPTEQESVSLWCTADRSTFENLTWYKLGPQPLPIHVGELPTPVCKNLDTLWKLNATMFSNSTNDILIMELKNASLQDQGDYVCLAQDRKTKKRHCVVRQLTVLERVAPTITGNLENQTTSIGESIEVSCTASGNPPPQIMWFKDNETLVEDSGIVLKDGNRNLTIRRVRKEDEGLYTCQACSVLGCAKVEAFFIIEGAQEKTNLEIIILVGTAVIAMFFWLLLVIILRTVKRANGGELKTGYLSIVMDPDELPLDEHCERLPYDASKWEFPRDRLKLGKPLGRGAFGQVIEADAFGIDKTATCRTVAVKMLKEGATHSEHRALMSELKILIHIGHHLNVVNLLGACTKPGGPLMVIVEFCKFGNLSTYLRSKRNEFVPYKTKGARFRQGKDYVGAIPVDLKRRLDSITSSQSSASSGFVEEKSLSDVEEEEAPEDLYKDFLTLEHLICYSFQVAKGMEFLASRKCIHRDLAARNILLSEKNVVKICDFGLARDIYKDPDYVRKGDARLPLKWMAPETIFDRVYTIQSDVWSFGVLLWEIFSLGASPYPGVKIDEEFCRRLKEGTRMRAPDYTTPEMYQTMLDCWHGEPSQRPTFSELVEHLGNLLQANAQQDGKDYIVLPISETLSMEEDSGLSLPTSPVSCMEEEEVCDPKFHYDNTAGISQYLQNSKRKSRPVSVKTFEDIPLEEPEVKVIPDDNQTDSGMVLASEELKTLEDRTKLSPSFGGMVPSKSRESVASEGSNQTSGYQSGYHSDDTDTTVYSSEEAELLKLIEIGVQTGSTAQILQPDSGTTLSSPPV

Chain of Receptor tyrosine-protein kinase erbB-2 (P04626 whole entry): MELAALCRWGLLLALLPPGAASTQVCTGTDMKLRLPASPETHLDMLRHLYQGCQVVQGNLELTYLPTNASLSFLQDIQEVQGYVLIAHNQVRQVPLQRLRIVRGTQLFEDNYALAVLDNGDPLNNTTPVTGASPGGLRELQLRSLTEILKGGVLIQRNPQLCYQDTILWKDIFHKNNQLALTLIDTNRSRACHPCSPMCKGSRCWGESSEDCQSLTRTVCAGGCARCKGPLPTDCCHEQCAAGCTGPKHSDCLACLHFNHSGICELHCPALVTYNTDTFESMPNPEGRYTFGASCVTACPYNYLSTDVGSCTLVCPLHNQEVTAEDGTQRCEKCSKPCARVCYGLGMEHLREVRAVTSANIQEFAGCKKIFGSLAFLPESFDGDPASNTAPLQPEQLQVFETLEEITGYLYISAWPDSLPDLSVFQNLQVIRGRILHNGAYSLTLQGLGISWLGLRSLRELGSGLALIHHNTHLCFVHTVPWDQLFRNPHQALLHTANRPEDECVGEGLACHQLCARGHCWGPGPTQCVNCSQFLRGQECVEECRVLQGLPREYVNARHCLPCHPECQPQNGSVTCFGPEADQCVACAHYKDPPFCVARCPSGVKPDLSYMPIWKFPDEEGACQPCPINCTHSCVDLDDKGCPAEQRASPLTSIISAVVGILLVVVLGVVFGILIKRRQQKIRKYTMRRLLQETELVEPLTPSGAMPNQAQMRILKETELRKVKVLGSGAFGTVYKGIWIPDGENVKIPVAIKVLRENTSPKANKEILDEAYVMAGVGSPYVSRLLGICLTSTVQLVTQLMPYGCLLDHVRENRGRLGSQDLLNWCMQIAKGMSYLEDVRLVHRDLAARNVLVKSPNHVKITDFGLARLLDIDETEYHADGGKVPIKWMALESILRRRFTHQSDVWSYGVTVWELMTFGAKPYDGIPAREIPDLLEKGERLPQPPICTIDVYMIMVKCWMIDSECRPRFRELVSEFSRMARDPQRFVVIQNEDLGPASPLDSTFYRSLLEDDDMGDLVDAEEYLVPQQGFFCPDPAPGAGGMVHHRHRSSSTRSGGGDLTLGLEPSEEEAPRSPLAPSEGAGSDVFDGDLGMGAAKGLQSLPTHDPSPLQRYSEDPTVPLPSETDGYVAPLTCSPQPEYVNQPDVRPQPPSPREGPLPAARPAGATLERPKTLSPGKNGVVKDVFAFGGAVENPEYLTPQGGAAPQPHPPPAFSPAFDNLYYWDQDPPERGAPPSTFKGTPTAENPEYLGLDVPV
Chain of Ephrin type-A receptor 2 (P29317 whole entry): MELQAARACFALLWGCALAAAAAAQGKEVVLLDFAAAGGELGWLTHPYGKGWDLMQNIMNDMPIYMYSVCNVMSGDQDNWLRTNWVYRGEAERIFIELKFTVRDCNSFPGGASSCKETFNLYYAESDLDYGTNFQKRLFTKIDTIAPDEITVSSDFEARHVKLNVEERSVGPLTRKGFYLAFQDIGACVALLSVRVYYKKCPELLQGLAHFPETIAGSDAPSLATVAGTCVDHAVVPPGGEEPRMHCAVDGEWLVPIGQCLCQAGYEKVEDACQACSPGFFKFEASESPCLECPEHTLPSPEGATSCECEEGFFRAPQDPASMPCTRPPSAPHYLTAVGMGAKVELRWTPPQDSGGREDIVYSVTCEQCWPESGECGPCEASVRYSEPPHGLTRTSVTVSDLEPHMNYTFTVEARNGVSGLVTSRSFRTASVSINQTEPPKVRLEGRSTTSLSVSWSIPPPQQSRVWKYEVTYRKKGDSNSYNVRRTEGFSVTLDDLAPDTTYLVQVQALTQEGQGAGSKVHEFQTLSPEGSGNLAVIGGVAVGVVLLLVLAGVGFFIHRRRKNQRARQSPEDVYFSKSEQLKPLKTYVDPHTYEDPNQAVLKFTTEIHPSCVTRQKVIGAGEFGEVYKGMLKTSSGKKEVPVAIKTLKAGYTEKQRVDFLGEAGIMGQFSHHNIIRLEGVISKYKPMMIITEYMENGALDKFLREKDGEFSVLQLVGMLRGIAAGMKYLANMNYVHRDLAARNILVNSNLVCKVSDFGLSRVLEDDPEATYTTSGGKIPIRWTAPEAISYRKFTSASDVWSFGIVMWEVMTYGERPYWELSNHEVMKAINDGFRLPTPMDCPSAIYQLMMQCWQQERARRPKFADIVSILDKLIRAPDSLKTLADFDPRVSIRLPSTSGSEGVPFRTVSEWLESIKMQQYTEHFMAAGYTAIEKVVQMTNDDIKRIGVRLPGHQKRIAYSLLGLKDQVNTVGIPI
Chain of Vascular endothelial growth factor receptor 1 (P17948 whole entry): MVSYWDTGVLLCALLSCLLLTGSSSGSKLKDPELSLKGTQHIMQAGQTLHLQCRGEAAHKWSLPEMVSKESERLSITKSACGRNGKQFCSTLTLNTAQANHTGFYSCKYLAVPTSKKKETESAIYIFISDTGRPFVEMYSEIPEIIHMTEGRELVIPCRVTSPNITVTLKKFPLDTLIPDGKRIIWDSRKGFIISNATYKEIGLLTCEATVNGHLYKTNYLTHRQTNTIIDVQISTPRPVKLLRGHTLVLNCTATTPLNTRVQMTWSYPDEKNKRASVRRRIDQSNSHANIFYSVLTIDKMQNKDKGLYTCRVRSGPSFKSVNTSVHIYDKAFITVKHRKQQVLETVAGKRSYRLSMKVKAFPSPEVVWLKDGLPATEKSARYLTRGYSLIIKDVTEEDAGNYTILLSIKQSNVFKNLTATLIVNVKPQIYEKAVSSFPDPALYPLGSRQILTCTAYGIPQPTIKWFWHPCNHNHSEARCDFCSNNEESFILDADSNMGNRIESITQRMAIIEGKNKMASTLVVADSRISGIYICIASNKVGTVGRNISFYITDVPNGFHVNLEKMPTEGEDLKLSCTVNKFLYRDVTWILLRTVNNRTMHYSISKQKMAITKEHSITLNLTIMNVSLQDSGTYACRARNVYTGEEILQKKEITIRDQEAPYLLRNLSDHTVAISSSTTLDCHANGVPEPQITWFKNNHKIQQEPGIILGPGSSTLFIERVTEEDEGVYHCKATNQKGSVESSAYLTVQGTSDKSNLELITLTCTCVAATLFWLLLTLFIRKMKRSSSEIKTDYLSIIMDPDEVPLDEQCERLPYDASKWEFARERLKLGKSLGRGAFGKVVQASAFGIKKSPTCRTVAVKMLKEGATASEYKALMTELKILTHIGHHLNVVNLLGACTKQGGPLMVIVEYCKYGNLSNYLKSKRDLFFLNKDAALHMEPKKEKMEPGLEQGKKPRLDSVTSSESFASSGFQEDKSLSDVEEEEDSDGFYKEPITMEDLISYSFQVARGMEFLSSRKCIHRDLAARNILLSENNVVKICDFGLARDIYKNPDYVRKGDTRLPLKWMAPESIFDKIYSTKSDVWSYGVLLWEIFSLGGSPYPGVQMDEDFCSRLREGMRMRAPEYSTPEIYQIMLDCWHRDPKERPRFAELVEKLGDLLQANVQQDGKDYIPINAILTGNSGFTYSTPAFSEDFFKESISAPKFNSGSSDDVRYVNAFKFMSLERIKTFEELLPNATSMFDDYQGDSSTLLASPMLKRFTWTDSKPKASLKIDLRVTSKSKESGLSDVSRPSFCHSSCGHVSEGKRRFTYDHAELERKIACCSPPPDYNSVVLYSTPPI

| SMILES | IC50 [1] | IC50 [2] | pIC50 [1] | IC50 (Ephrin type-A receptor 2) | pIC50 (Ephrin type-B receptor 4) | IC50 [3] | IC50 (Ephrin type-B receptor 4) | pIC50 (Ephrin type-A receptor 2) |
| --- | --- | --- | --- | --- | --- | --- | --- | --- |
| COc1cc2c(Nc3ccc(F)c(Cl)c3F)ncnc2cc1OC[C@H]1C[C@@H]2CN(C)C[C@@H]2C1 [US9796704, Entry 11] | in the range around 525 nM | in the range around 525 nM |  |  |  |  |  |  |
| COc1cc2c(Nc3ccc(Cl)c(Cl)c3)ncnc2cc1OC[C@H]1C[C@@H]2CN(C)C[C@@H]2C1 [US9796704, Entry 15] |  | in the range around 525 nM | > 7.30 |  |  |  |  |  |
| COc1cc2c(Nc3ccc(Br)c(Cl)c3F)ncnc2cc1OC[C@@H]1C[C@@H]2CN(S(C)(=O)=O)C[C@@H]2C1 [US9796704, Entry 6] | in the range around 525 nM |  |  | in the range around 525 nM | > 7.30 | in the range around 525 nM |  |  |
| COc1cc2c(Nc3ccc(Cl)c(Cl)c3)ncnc2cc1OC[C@H]1CN2CCC[C@H]2CO1 [US9796704, Entry 35] | in the range around 525 nM |  |  | in the range around 525 nM |  |  | in the range around 525 nM |  |
| COc1cc2c(Nc3ccc(Cl)c(Cl)c3F)ncnc2cc1OC[C@@H]1CN2CCC[C@@H]2C(=O)N1 [US9796704, Entry 52] |  | in the range around 10500 nM |  | in the range around 10500 nM |  | in the range around 10500 nM |  |  |
| COc1cc2c(Nc3ccc(Br)c(Cl)c3F)ncnc2cc1OCC1CO[C@@H]2[C@@H](OC)CO[C@H]12 (stereo not given in full) [US9796704, Entry 44] | in the range around 10500 nM | in the range around 525 nM |  |  |  |  |  |  |
| COc1cc2c(Nc3ccc(Br)c(Cl)c3F)ncnc2cc1OC[C@H]1C[C@@H]2CN(C)C[C@@H]2C1 [US9796704, Entry 10] | in the range around 525 nM | in the range around 525 nM |  |  |  |  |  |  |
| C=CCCCCN1CCOC(COc2cc3ncnc(Nc4ccc(Cl)c(Cl)c4)c3cc2OC)C1 (stereo not given) [US9796704, Entry 274] | in the range around 10500 nM |  |  | in the range around 10500 nM |  | in the range around 10500 nM | in the range around 10500 nM |  |
| COc1cc2c(Nc3ccc(Br)c(Cl)c3Cl)ncnc2cc1OC[C@H]1C[C@@H]2CN(C)C[C@@H]2C1 [US9796704, Entry 14] | in the range around 525 nM | in the range around 525 nM |  |  |  |  |  |  |
| COc1cc2c(Nc3ccc(Br)c(Cl)c3F)ncnc2cc1OC[C@@H]1CN2CCC[C@H]2CO1 [US9796704, Entry 37] |  |  | > 7.30 |  |  |  | in the range around 525 nM |  |
| COC(=O)CCN1CCOC(COc2cc3ncnc(Nc4ccc(Cl)c(Cl)c4)c3cc2OC)C1 (stereo not given) [US9796704, Entry 276] | in the range around 10500 nM |  |  | in the range around 10500 nM |  | in the range around 10500 nM | in the range around 10500 nM |  |
| CCN1CCCC1c1noc(COc2cc3ncnc(Nc4ccc(Cl)c(Cl)c4)c3cc2OC)n1 (stereo not given) [US9796704, Entry 255] | in the range around 10500 nM |  |  | in the range around 10500 nM |  | in the range around 10500 nM | in the range around 525 nM |  |
| COc1cc2c(Nc3ccc(Cl)c(Cl)c3F)ncnc2cc1OC[C@@H]1CN2CCC[C@H]2C(=O)N1 [US9796704, Entry 51] |  | in the range around 10500 nM |  | in the range around 10500 nM |  | in the range around 10500 nM |  |  |
| COc1cc2c(Nc3ccc(Cl)c(Cl)c3)ncnc2cc1OC[C@@H]1CN2CCC[C@H]2CO1 [US9796704, Entry 34] |  |  | > 7.30 | in the range around 525 nM |  | in the range around 525 nM | in the range around 525 nM |  |
| COc1cc2c(Nc3ccc(Cl)c(Cl)c3F)ncnc2cc1OC[C@H]1C[C@@H]2CN(C)C[C@@H]2C1 [US9796704, Entry 9] | in the range around 525 nM |  |  | in the range around 525 nM |  | in the range around 525 nM | in the range around 525 nM |  |
| COc1cc2c(Nc3ccc(Cl)c(Cl)c3)ncnc2cc1OCc1noc(COCc2ccccc2)n1 [US9796704, Entry 211] |  |  |  | in the range around 525 nM |  | in the range around 525 nM | in the range around 525 nM |  |

| SMILES | IC50 [1] | IC50 [2] | pIC50 [1] | IC50 (Ephrin type-A receptor 2) | pIC50 (Ephrin type-B receptor 4) | IC50 [3] | IC50 (Ephrin type-B receptor 4) | pIC50 (Ephrin type-A receptor 2) |
| --- | --- | --- | --- | --- | --- | --- | --- | --- |
| COc1cc2c(Nc3ccc(Cl)c(Cl)c3F)ncnc2cc1OC[C@@H]1C[C@@H]2CN(C(C)C)C[C@@H]2C1 [US9796704, Entry 1] |  | in the range around 525 nM | > 7.30 |  |  |  |  |  |
| COc1cc2c(Nc3ccccc3Cl)ncnc2cc1O[C@@H]1CO[C@@H]2[C@H]1OC[C@H]2F [US9796704, Entry 112] |  |  |  | in the range around 525 nM |  | in the range around 525 nM | in the range around 525 nM |  |
| COc1cc2c(Nc3ccccc3Br)ncnc2cc1O[C@@H]1CO[C@@H]2[C@H]1OC[C@H]2F [US9796704, Entry 128] |  |  |  | in the range around 525 nM |  | in the range around 525 nM | in the range around 525 nM |  |
| COc1cc2c(Nc3ccc(Br)c(Cl)c3)ncnc2cc1O[C@H]1CO[C@@H]2[C@@H](OC)[C@@H](OC)O[C@@H]21 [US9796704, Entry 82] |  |  |  | in the range around 525 nM |  | in the range around 525 nM | in the range around 525 nM |  |
| COc1cc2c(Nc3ccc(Cl)c(Cl)c3)ncnc2cc1OCc1cccc2nsnc12 [US9796704, Entry 159] |  |  |  | in the range around 525 nM |  | in the range around 525 nM | in the range around 525 nM |  |
| COc1cc2c(Nc3ccc(F)c(F)c3)ncnc2cc1O[C@@H]1CO[C@@H]2[C@H]1OC[C@H]2F [US9796704, Entry 111] | in the range around 525 nM |  |  | in the range around 525 nM |  | in the range around 525 nM | in the range around 525 nM |  |
| COc1cc2c(Nc3ccc(Cl)c(Cl)c3F)ncnc2cc1OC[C@H]1CN2CCOCC2CO1 (stereo not given in full) [US9796704, Entry 29] |  |  |  |  |  | in the range around 525 nM | in the range around 525 nM | > 7.30 |
| CCN1CCCC1c1nc(COc2cc3ncnc(Nc4ccc(Cl)c(Cl)c4)c3cc2OC)cs1 (stereo not given) [US9796704, Entry 256] | in the range around 10500 nM |  |  | in the range around 10500 nM |  | in the range around 10500 nM | in the range around 525 nM |  |
| COc1ccc(-c2cc(COc3cc4ncnc(Nc5ccc(Cl)c(Cl)c5)c4cc3OC)on2)cc1 [US9796704, Entry 180] |  |  |  | in the range around 525 nM |  | in the range around 525 nM | in the range around 525 nM |  |
| COc1cc2c(Nc3ccc(Cl)cc3)ncnc2cc1O[C@@H]1CO[C@@H]2[C@H]1OC[C@H]2F [US9796704, Entry 116] |  |  |  | in the range around 525 nM |  | in the range around 525 nM | in the range around 525 nM |  |
| COc1cc2c(Nc3ccc(F)cc3Cl)ncnc2cc1O[C@@H]1CO[C@@H]2[C@H]1OC[C@H]2F [US9796704, Entry 85] |  |  |  | in the range around 525 nM |  | in the range around 525 nM | in the range around 525 nM |  |
| COc1cc2c(Nc3ccc(Cl)c(Cl)c3)ncnc2cc1OCC1CN2CSC[C@H]2CO1 (stereo not given in full) [US9796704, Entry 56] |  | in the range around 10500 nM |  | in the range around 10500 nM |  | in the range around 10500 nM |  |  |
| COc1cc2c(Nc3ccc(Cl)c(Cl)c3)ncnc2cc1OCc1c(C(F)(F)F)nn(C)c1Oc1ccc(Cl)cc1Cl [US9796704, Entry 181] |  |  |  | in the range around 525 nM |  | in the range around 525 nM | in the range around 525 nM |  |
| COc1cc2c(Nc3cc(C)cc(C)c3)ncnc2cc1O[C@@H]1CO[C@@H]2[C@H]1OC[C@H]2F [US9796704, Entry 133] |  |  |  | in the range around 525 nM |  | in the range around 525 nM | in the range around 525 nM |  |
| COc1cc2c(Nc3cc(C(F)(F)F)ccc3Br)ncnc2cc1O[C@@H]1CO[C@@H]2[C@H]1OC[C@H]2F [US9796704, Entry 124] |  |  |  | in the range around 525 nM |  | in the range around 525 nM | in the range around 525 nM |  |
| COc1cc2c(Nc3ccc(Cl)c(Cl)c3)ncnc2cc1OCC1CC2CCC(C1)N2C (stereo not given) [US9796704, Entry 58] |  | in the range around 10500 nM |  |  |  |  |  |  |
